Measurements: US20090215893A1, “Parakeratosis inhibitor, pore-shrinking agent,or rough skin preventing/ameliorating agent, and external composition for skin” (Shiseido Company Ltd, priority 2005, published 2009)

Tests used:
[1] = test system: back of a hairless mouse (HR-1), 10 mass % oleic acid applied; test: Parakeratosis-inhibiting effect tests: oleic acid applied to hairless mouse back, macroscopic rough skin evaluation and parakeratosis value; format: in vivo; conditions: for Macroscopic evaluation (average of four animals): 100 μL after oleic acid, three days, rough skin score 0.0 (no redness) to 2.0 (control); for Parakeratosis value (average of four animals): tape-stripped stratum corneum, hematoxylin, range 1.0 to 3.0, higher = parakeratosis advanced, control 2.0; for parakeratosis value / parakeratosis-inhibiting effect / rough skin preventing effect, based on stratum corneum peeling and redness: summary of Table 1, concentrations as in Table 1
Procedure: Aqueous solutions (containing 30 mass % of ethanol) of primarily 3 mass % of an α-amino acid derivative or salt thereof were prepared as the evaluation sample. The pH was regulated by hydrochloric acid or sodium hydroxide so as to be 7.0 to 7.5. When sample solubility was low, the solution was prepared accordingly.
100 μL of 10 mass % oleic acid solution (solvent: ethanol) were applied to the back of a hairless mouse (HR-1; Hoshino Laboratory Animals). Then the sample solution (α-amino acid derivative, and the like) was applied 100 μL at a time. This procedure was continued for three days. […] The status of the skin was evaluated in 0.25-point intervals, with skin where the control (control aqueous solution) had been applied being 2.0 and skin where there was no redness being 0.0. At the same time, the stratum corneum at the back of the hairless mouse was peeled off with tape, the nuclei were stained by hematoxylin, and the degree of parakeratosis was observed and evaluated by a parakeratosis value within a range of 1.0 to 3.0 (in 0.25 increments).

[2] = test system: pores of the cheeks of healthy human males; test: Human pore-shrinking effect (replica assessment of cheek pores); format: in vivo; conditions: for Replica assessment (average of n = 5): twice a day for one month, pore size rating 1-13, after application minus before application, control 0.3; for pore-shrinking effect: summary of Table 2, concentrations as in Table 2
Procedure: An experiment was conducted whereby a sample was applied twice a day for one month to the cheeks of healthy human males in groups of 5 men each. Aqueous solutions (containing 15 mass % of ethanol) of 3 mass % of the α-amino acid derivative or a salt thereof were prepared as the evaluation sample. The pH was regulated by hydrochloric acid or sodium hydroxide so as to be 7.0 to 7.5. When sample solubility was low, the solution was prepared accordingly. The control was an aqueous 15% ethanol solution. The sample aqueous solution and control aqueous solution were applied to one half of the face at a time.
A replica was collected before and after continuous application, and changes in the shape of the pores at the same site were observed using a three-dimensional laser scanning microscope. The size of the pores was macroscopically evaluated in 13 steps of 1 through 13 (with the pores becoming larger as the numbers became larger), the difference in the ratings before and after application (after application-before application) was calculated, and the efficacy of each sample was studied using this difference as the replica assessment.

[3] = test system: back of hairless mice (HR-1), 10 mass % oleic acid applied; test: Inhibiting effect against rough skin induced by oleic acid application (transepidermal water loss); format: in vivo; parameters: ΔTEWL value: unit not given here; conditions: for ΔTEWL value: three days, average of four animals, rough skin worse as value increases, control 12.0; for ΔTEWL value compared with the control aqueous solution / rough skin preventing/ameliorating effect: summary of Table 3, concentrations as in Table 3
Procedure: In order to investigate the inhibiting effect of α-amino acid derivatives and salts thereof against rough skin induced by oleic acid application, the transepidermal water loss (TEWL value) before and after application was measured, the difference was compared with the control (control aqueous solution), and the effect was determined. Sample preparation and the application method were in accordance with Example 1. The TEWL was determined using the TM210 TEWA Meter (Courage+Khazaka Electronic GmBH).
100 μL of 10 mass % oleic acid (solvent: ethanol) was applied to the back of hairless mice (HR-1, four mice per group). Then a sample solution (α-amino acid derivatives, and the like) was applied 100 μL at a time. This procedure was continued for three days. The following day, the TEWL value of the back was determined and the values of the four animals were averaged. Rough skin became worse as the ΔTEWL value increased.

[4] = test system: cheek of a panel of 20 women; test: Sensory irritation tests; format: in vivo, human; conditions: for Evaluation (sensory irritation, class of average rating): 1 mL on cheek, evaluated for ten minutes, 20 women; for sensory irritation: summary of Table 4, β-alanine at 3%
Procedure: 1 mL of a control aqueous solution and the sample aqueous solution prepared in Example 1 were applied using a cotton swab to the left or right cheek, respectively, of a panel of 20 women, the irritating sensation was evaluated every 30 seconds for ten minutes beginning immediately after application, and a final evaluation was reported. The evaluation of the irritating sensation was based on the following four steps of rating criteria, the average rating was calculated, and the average was classified by the following criteria.
3: Discontinued because of extremely strong irritation, such as stinging sensation, burning sensation, tickling sensation, itching, and the like.
2: Intolerable strong irritation, such as stinging sensation, burning sensation, tickling sensation, itching, and the like.
1: Tolerable with only slight stinging sensation, burning sensation, tickling sensation, itching, and the like.
0: Not particularly irritating.
A: average rating of less than 0.2
B: average rating of 0.2 to less than 1.0
C: average rating of 1.0 to less than 2.0
D: average rating of 2.0 or greater

Row | SMILES | Macroscopic evaluation (average of four animals) ([1]; sample 3 mass %) | Parakeratosis value (average of four animals) ([1]; sample 3 mass %) | parakeratosis value / parakeratosis-inhibiting effect [1] | rough skin preventing effect, based on stratum corneum peeling and redness [1] | Replica assessment (average of n = 5) ([2]; sample 3 mass %) | pore-shrinking effect [2] | ΔTEWL value ([3]; sample 3 mass %) | ΔTEWL value compared with the control aqueous solution / rough skin preventing/ameliorating effect [3] | Evaluation (sensory irritation, class of average rating) ([4]; sample 3 mass %) | sensory irritation [4] | Macroscopic evaluation (average of four animals) ([1]; sample 1.5 mass %) | Parakeratosis value (average of four animals) ([1]; sample 1.5 mass %) | Replica assessment (average of n = 5) ([2]; sample 1.5 mass %) | ΔTEWL value ([3]; sample 1.5 mass %) | Evaluation (sensory irritation, class of average rating) ([4]; sample 1.5 mass %)
1 | CCNC(CO)C(=O)O (racemic) [N-ethyl-DL-serine] | 1.5 | 1.5 | reduced | seen | −1.3 | seen | 7.8 | significantly lower | A (average rating of less than 0.2) | no problems | – | – | – | – | –
2 | CNC(C)C(=O)O (racemic) [N-methyl-DL-alanine] | 1.4 | 1.4 | reduced | seen | −0.9 | seen | 8.1 | significantly lower | A (average rating of less than 0.2) | no problems | – | – | – | – | –
3 | CNC(CO)C(=O)O (racemic) [N-methyl-DL-serine] | 1.2 | 1.2 | reduced | seen | −0.7 | seen | 8.0 | significantly lower | A (average rating of less than 0.2) | no problems | – | – | – | – | –
4 | C[C@@H](NS(=O)(=O)c1ccccc1)C(=O)O [N-benzenesulfonyl-D-alanine] | – | – | – | – | – | – | – | – | – | – | 1.3 | 1.4 | −1.2 | 7.0 | A (average rating of less than 0.2)
5 | O=C(O)[C@@H](CO)NS(=O)(=O)c1ccccc1 [N-benzenesulfonyl-D-serine] | 1.3 | 1.2 | reduced | seen | −1.1 | seen | 6.7 | significantly lower | A (average rating of less than 0.2) | no problems | – | – | – | – | –
6 | C[C@H](NS(=O)(=O)c1ccccc1)C(=O)O [N-benzenesulfonyl-L-alanine] | – | – | reduced | seen | – | seen | – | significantly lower | – | no problems | 1.2 | 1.3 | −0.9 | 7.2 | A (average rating of less than 0.2)
7 | O=C(O)[C@H](CO)NS(=O)(=O)c1ccccc1 [N-benzenesulfonyl-L-serine] | 1.2 | 1.2 | reduced | seen | −1.2 | seen | 6.8 | significantly lower | A (average rating of less than 0.2) | no problems | – | – | – | – | –
8 | O=C(O)CNS(=O)(=O)c1ccccc1 [N-benzenesulfonyl-glycine] | 1.2 | 1.2 | reduced | seen | −1.3 | seen | 6.9 | significantly lower | A (average rating of less than 0.2) | no problems | – | – | – | – | –
9 | C[C@@H](NC(=O)OCc1ccccc1)C(=O)O [N-carbobenzoyloxy-D-alanine] | 1.2 | 1.1 | reduced | seen | −0.8 | seen | 7.1 | significantly lower | A (average rating of less than 0.2) | no problems | – | – | – | – | –
10 | O=C(N[C@H](CO)C(=O)O)OCc1ccccc1 [N-carbobenzoyloxy-D-serine] | 1.2 | 1.2 | reduced | seen | −1.3 | seen | 6.8 | significantly lower | A (average rating of less than 0.2) | no problems | – | – | – | – | –
